From BindingDB's records for doi:10.1016/j.bmc.2007.01.044 (University of San Francisco, 2007)
pKd: −log10 of the molar value.

What follows are compounds tested against T1, UDP-3-O-acyl-N-acetylglucosamine deacetylase (Aquifex aeolicus (strain VF5), UniProt O67648) (assay: Ligand Affinity Measurements). Settings: pH 7; 30 °C.
T1 sequence (O67648 whole entry): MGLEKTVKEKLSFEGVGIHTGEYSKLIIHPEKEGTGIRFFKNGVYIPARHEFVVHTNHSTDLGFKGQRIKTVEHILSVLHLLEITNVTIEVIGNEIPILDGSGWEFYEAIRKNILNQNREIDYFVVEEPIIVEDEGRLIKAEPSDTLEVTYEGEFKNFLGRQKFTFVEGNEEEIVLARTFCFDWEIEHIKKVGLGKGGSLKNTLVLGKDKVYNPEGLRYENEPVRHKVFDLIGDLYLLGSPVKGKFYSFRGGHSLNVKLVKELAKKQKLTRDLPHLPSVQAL
Description: Ligand binding to A. aeolicus LpxC was assayed by isothermal titration using isothermal microcalorimeter from Microcal, Inc. (Northampton, MA). The enzyme was stripped of all metal ions, and was reconstituted with Zn2+ (1:1 ratio) by the addition of ZnSO4. The calorimeter cell contained enzyme (40 or 60 uM), and the syringe contained ligand (250 or 400 uM). A series of 30 injections of 8 ul each were performed at 180-s intervals. Titrations of aliphatic compounds into buffer were also performed as control experiments using identical conditions. Data were fit to a single binding site model using Origin v. 2.9.

SMILES | pKd
CCCCCCCC(=O)O [octanoic acid] | < 4.00
CCCCCCCCCC(=O)O [decanoate] | 5.15
CCCCCCCCCCCC(=O)O [dodecanoate] | 6.05
